As a reminder, the IC50 is the concentration that gives 50% inhibition.

This note sets out measurements from paper PMC11678425, “(-)-Syringaresinol Exerts an Antidepressant-like Activity in Mice by Noncompetitive Inhibition of the Serotonin Transporter” (Pharmaceuticals, 2024).

Assay [1] has as its target T1, hSERT S559A (Homo sapiens, UniProt P31645, S559A).
T1 construct: forward and reverse primers were used to amplify a full-length hSERT; expressed in transfected cells; host or cells: HeLa cells, transient, pcDNA3.1
Nature of the assay: APP^+ uptake, hSERT S559A. The conditions noted are these: S2 site mutant, read-out: SYR IC50 for Transport. Format: cell-based.

The next assay concerns the target T2, hSERT R564A (Homo sapiens, UniProt P31645, R564A).
T2 construct: forward and reverse primers were used to amplify a full-length hSERT; expressed in transfected cells; host or cells: HeLa
The assay is described as follows: APP^+ uptake, hSERT R564A. In kind it is cell-based. To be noted: S2 site mutant, read-out: SYR IC50 for Transport.

In assay [2] the target is T1, hSERT S559A. The assay is described as follows: ASP^+ binding, hSERT S559A. The conditions noted are these: S2 site mutant, read-out: SYR IC50 for Binding.
Assay [3] has as its target T3, hSERT P499G (Homo sapiens, UniProt P31645, P499G).
T3 construct: forward and reverse primers were used to amplify a full-length hSERT; expressed in transfected cells; host or cells: HeLa cells, transient, pcDNA3.1
Nature of the assay: ASP^+ binding, hSERT P499G. The conditions noted are these: S2 site mutant, read-out: SYR IC50 for Binding.

For the next assay, the target named is T4, hSERT G498T (Homo sapiens, UniProt P31645, G498T).
T4 construct: forward and reverse primers were used to amplify a full-length hSERT; expressed in transfected cells; host or cells: HeLa cells, transient, pcDNA3.1
Nature of the assay: ASP^+ binding, hSERT G498T. The conditions noted are these: S2 site mutant, read-out: SYR IC50 for Binding.

Another assay has as its target T5, hSERT Y579A (Homo sapiens, UniProt P31645, Y579A).
T5 construct: forward and reverse primers were used to amplify a full-length hSERT; expressed in transfected cells; host or cells: HeLa
Nature of the assay: APP^+ uptake, hSERT Y579A. To be noted: S2 site mutant, read-out: SYR IC50 for Transport. In kind it is cell-based.

The target in assay [4] is T3, hSERT P499G. Nature of the assay: APP^+ uptake, hSERT P499G. In kind it is cell-based. The conditions noted are these: S2 site mutant, read-out: SYR IC50 for Transport.
The target in assay [5] is T6, hSERT Q111N (Homo sapiens, UniProt P31645, Q111N).
T6 construct: forward and reverse primers were used to amplify a full-length hSERT; expressed in transfected cells; host or cells: HeLa cells, transient, pcDNA3.1
The assay is described as follows: ASP^+ binding, hSERT Q111N. The conditions noted are these: S2 site mutant, read-out: SYR IC50 for Binding.

The next assay has as its system SERT Y107C/C109A. Nature of the assay: Cysteine accessibility, extracellular pathway: MTSET reactivity with Y107C/C109A. The conditions noted are these: 10 μM ligand, compared with the control (MTSET alone). In kind it is cell-based.
The target of a further assay is T7, hSERT P560G (Homo sapiens, UniProt P31645, P560G).
T7 construct: forward and reverse primers were used to amplify a full-length hSERT; expressed in transfected cells; host or cells: HeLa cells, transient, pcDNA3.1
Nature of the assay: ASP^+ binding, hSERT P560G. To be noted: S2 site mutant, read-out: SYR IC50 for Binding.

Assay [6] deals with BDNF, PSD-95, GluA1, and vGluT1. The assay is described as follows: Immunoblot of synaptic proteins in mPFC of CUMS mice. Format: in vivo, mouse. To be noted: SYR administration. As to the method: Figure 7 SYR effects on the expression of c-Fos and synaptic proteins in mPFC. (A) Representative immunohistochemical images of c-Fos expression in mPFC under the indicated treatments. Immunohistochemistry of c-Fos was performed with mPFC slices as described in Section 4. The slices were re-probed with anti-DAPI antibody. Immunofluorescence images for c-Fos (green) and DAPI (blue) were acquired by confocal microscopy. (B) Quantitative analysis for c-Fos expression in mPFC with various treatments. Protein expression is expressed as a percentage of c-Fos fluorescence measured in the control group. Bars represent the mean ± SEM (n = 4). * p < 0.05, ** p < 0.01 compared with the control or CUMS group by one-way ANOVA followed by post hoc tests, respectively. […] (D–G) Quantification of the expression of the synaptic proteins BDNF (D), PSD-95 (E), GluA1 (F), and vGluT1 (G). The expression level is expressed as a percentage of the integrated density obtained from the control group. […]
Synaptic proteins were extracted from mPFC or hippocampus tissues using RIPA lysis buffer, respectively. Expression of the indicated proteins under various treatments was then analyzed by immunoblotting, as previously reported. […] Quantification of immunoreactive protein bands was performed using Image J v1.53u, and GAPDH was used as an internal reference to normalize expression levels of those proteins, respectively.
On the technique in general: In western blotting, separated proteins are transferred to a membrane and probed.

The target of the next assay is T8, hSERT S438T (Homo sapiens, UniProt P31645, S438T).
T8 construct: forward and reverse primers were used to amplify a full-length hSERT; expressed in transfected cells; host or cells: HeLa
Nature of the assay: ASP^+ binding, hSERT S438T. The conditions noted are these: S1 site mutant, read-out: SYR IC50 for Binding.

Another assay deals with SERT S277C/X5C. Nature of the assay: Cysteine accessibility, cytoplasmic pathway: MTSEA reactivity with S277C/X5C. Format: cell-based. To be noted: 10 μM ligand, digitonin-permeabilized cells, compared with the control.
In another assay the target is T9, hSERT E494Q (Homo sapiens, UniProt P31645, E494Q).
T9 construct: forward and reverse primers were used to amplify a full-length hSERT; expressed in transfected cells; host or cells: HeLa cells, transient, pcDNA3.1
The assay is described as follows: APP^+ uptake, hSERT E494Q. Format: cell-based. To be noted: S2 site mutant, read-out: SYR IC50 for Transport.

The next assay concerns the target T10, hSERT E493N (Homo sapiens, UniProt P31645, E493N).
T10 construct: forward and reverse primers were used to amplify a full-length hSERT; expressed in transfected cells; host or cells: HeLa cells, transient, pcDNA3.1
Nature of the assay: APP^+ uptake, hSERT E493N. To be noted: S2 site mutant, read-out: SYR IC50 for Transport. In kind it is cell-based.

In assay [7] the target is T6, hSERT Q111N. Nature of the assay: APP^+ uptake, hSERT Q111N. Format: cell-based. The conditions noted are these: S2 site mutant, read-out: SYR IC50 for Transport.
Another assay concerns the target T11, hSERT Y95F (Homo sapiens, UniProt P31645, Y95F).
T11 construct: forward and reverse primers were used to amplify a full-length hSERT; expressed in transfected cells; host or cells: HeLa
Nature of the assay: ASP^+ binding, hSERT Y95F. To be noted: S1 site mutant, read-out: SYR IC50 for Binding.

T3 sequence (P31645 whole entry P499G): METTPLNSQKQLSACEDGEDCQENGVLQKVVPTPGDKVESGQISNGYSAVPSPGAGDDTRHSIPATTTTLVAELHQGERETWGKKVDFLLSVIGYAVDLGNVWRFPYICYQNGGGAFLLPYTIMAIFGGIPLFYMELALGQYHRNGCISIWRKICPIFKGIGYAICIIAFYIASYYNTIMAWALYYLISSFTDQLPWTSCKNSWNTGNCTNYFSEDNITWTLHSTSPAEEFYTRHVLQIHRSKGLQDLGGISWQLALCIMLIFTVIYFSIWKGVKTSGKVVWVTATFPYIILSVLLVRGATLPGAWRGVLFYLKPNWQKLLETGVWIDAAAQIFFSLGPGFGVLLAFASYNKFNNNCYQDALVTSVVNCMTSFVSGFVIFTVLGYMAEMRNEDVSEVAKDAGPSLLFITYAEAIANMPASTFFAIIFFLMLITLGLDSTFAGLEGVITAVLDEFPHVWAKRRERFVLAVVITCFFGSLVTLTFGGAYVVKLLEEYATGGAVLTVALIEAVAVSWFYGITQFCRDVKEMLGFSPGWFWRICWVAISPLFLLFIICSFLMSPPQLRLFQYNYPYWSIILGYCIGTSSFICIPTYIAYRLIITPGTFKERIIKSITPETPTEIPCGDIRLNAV
T1 sequence (P31645 whole entry S559A): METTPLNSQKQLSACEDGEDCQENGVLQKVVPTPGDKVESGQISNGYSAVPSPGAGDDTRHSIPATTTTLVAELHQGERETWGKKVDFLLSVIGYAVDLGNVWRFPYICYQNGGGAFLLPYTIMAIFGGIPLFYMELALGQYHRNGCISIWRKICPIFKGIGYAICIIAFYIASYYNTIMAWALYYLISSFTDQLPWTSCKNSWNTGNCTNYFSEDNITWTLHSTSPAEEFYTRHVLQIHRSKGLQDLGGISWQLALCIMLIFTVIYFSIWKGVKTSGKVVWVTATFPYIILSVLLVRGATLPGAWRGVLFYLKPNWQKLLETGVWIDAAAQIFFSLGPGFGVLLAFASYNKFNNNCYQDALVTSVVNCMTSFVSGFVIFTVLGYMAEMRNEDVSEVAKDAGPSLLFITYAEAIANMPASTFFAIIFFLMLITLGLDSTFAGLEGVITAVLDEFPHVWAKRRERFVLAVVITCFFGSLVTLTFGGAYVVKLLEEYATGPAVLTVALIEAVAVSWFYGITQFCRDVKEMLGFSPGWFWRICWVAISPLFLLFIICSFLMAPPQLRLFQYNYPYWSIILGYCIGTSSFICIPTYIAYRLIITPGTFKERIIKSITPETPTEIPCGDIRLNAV
T6 sequence (P31645 whole entry Q111N): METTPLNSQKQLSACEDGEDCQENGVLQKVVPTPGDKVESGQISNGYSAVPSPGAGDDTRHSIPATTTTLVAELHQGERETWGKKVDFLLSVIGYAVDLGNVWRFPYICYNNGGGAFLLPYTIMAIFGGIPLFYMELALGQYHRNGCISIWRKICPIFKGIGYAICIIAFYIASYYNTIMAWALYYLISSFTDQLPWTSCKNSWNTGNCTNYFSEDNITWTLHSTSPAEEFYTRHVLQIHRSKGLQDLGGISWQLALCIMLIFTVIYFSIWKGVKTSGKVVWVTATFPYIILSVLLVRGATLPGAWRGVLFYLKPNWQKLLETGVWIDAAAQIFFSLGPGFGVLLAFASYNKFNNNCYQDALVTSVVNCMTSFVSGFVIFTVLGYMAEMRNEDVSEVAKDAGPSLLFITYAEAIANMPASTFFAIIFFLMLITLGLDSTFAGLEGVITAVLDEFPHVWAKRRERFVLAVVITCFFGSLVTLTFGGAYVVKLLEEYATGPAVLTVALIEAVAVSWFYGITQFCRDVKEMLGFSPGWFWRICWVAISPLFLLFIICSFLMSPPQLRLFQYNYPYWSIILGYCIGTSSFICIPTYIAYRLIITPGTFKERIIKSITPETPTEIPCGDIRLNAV
T2 sequence (P31645 whole entry R564A): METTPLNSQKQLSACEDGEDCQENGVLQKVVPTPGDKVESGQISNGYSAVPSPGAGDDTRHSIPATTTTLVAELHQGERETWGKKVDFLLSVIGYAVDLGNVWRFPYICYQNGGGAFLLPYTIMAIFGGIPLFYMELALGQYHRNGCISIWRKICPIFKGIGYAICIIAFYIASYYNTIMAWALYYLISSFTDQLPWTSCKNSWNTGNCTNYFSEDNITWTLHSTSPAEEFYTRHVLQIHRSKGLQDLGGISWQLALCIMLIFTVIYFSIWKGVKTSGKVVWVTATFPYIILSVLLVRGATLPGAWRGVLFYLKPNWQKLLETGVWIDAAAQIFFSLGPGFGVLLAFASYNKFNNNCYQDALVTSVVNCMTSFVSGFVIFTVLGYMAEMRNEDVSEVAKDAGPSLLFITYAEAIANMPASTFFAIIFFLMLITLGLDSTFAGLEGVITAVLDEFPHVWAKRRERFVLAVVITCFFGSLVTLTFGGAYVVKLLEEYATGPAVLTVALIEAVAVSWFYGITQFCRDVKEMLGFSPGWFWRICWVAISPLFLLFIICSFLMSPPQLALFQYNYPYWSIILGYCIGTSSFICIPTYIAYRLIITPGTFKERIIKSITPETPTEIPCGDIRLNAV
T10 sequence (P31645 whole entry E493N): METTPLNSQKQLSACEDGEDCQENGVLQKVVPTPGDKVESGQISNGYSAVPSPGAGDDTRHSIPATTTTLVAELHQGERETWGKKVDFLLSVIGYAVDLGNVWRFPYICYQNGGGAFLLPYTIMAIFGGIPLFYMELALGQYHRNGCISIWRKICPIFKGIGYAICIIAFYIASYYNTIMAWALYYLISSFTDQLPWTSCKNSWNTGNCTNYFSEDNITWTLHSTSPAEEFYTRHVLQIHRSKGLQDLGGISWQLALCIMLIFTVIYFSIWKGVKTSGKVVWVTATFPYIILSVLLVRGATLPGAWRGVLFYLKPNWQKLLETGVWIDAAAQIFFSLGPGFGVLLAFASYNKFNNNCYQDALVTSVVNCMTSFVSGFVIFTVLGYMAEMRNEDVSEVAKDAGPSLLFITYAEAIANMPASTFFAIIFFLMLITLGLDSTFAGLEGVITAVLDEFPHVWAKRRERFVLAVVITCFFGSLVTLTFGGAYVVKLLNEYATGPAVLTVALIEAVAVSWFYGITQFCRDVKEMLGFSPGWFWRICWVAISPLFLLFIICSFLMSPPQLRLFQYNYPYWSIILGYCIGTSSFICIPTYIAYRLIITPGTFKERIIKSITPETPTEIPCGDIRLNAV
T5 sequence (P31645 whole entry Y579A): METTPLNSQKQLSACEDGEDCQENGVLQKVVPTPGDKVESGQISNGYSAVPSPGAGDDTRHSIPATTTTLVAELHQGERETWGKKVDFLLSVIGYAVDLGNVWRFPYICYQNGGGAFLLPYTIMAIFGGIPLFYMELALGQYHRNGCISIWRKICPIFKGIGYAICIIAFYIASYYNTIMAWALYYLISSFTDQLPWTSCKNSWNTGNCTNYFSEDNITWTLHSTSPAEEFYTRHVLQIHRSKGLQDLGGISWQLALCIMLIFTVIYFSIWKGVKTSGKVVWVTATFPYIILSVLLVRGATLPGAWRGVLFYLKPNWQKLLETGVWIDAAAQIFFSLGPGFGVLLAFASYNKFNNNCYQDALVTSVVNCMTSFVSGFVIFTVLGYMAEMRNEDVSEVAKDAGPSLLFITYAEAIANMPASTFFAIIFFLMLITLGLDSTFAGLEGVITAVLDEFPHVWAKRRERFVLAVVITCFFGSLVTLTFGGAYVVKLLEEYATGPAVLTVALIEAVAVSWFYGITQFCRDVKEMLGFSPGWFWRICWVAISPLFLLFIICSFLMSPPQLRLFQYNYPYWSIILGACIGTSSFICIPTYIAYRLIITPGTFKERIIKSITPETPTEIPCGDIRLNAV
T11 sequence (P31645 whole entry Y95F): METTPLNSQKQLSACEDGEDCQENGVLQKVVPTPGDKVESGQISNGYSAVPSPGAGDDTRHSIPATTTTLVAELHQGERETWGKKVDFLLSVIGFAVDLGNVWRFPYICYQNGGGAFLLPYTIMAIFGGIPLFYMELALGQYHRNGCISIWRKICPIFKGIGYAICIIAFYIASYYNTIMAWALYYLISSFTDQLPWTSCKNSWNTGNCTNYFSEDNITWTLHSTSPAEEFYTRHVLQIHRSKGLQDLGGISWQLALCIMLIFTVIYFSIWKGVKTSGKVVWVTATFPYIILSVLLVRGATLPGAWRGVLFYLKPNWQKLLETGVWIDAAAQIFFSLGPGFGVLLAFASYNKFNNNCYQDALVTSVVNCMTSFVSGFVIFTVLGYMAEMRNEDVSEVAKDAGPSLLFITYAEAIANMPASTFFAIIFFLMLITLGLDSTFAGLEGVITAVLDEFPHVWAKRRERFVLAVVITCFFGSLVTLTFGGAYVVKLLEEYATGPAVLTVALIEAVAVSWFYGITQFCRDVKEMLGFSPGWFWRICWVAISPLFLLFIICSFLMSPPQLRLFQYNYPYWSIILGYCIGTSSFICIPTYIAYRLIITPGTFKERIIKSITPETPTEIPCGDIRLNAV
T8 sequence (P31645 whole entry S438T): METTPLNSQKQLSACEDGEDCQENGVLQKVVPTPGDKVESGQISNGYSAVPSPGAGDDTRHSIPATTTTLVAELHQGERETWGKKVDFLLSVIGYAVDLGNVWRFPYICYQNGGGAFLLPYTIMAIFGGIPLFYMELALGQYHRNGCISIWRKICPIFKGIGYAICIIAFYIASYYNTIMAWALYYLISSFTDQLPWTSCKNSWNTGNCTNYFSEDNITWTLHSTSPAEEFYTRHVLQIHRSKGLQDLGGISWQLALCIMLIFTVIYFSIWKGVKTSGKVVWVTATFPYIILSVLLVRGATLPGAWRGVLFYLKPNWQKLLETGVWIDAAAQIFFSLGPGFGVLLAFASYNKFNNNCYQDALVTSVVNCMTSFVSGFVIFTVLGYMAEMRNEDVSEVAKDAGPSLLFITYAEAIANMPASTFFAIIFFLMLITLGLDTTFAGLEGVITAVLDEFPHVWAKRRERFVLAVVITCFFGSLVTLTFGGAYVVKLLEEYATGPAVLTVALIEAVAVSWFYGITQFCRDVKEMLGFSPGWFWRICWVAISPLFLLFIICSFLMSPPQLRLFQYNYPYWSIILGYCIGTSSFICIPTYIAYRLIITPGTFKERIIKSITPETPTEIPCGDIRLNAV

Turning to `COc1cc([C@@H]2OC[C@@H]3[C@H]2CO[C@H]3c2cc(OC)c(O)c(OC)c2)cc(OC)c1O` [SYR, (-)-syringaresinol], the 50% inhibitory concentration (IC50) is 19.5 ± 1.46 µM at hSERT S559A [1]; 14.6 ± 1.59 µM at hSERT R564A; 36.8 ± 2.49 µM on hSERT S559A [2]; 46.8 ± 2.35 µM at hSERT P499G [3]; 91 ± 6.29 µM at hSERT G498T; 16.3 ± 1.06 µM on hSERT Y579A. For the same compound, the IC50 on hSERT P499G [4] amounted to 11 ± 1.43 µM; on hSERT Q111N [5] it was 115 ± 2.47 µM; at hSERT P560G, 14.7 ± 0.26 µM; at hSERT S438T, 2.32 ± 0.02 µM; on hSERT E494Q, 12 ± 2.17 µM; on hSERT E493N, 9.16 ± 0.34 µM. For the same compound, the IC50 on hSERT Q111N [7] came to 17.7 ± 0.45 µM; at hSERT Y95F, 1.21 ± 0.01 µM. Further, the “rate constant of MTSET reactivity with Y107C/C109A” value in the assay with SERT Y107C/C109A is “markedly increased”. Further, in assay [6], the “CUMS-induced reduction in expression of synaptic proteins BDNF, PSD-95, GluA1, vGluT1 in mPFC” value is listed as “attenuated”. For the same compound, the “rate constant of MTSEA reactivity with S277C/X5C” value with SERT S277C/X5C was “decreased”.
